Experimental data: paper PMC6429202, “Drug-1,3,4-Thiadiazole Conjugates as Novel Mixed-Type Inhibitors of Acetylcholinesterase: Synthesis, Molecular Docking, Pharmacokinetics, and ADMET Evaluation” (Molecules, 2019)
Where two headings read alike, the source gives them in different places.

What was measured:
[1] = DPPH free radical scavenging assay; conditions: tested at 100 µg/mL; compared with vitamin C
Experimental: The synthesized compounds were further evaluated for their 2,2-diphenyl-1-picrylhydrazyl (DPPH) radical scavenging capacity. To evaluate their DPPH inhibition abilities, a radical scavenging assay was performed. The assay mixtures contained 20 µL of increasing concentrations of the test compounds and 100 µL of DPPH (150 µM), and the total volume of each well was brought up to 200 µL with methanol. Then, the mixture was incubated for 30 min at room temperature. For comparison and assay validity, ascorbic acid (vitamin C) was used as a positive control. The absorbance was recorded at 517 nm using a microplate reader (OPTI Max, Tunable). The results were calculated as percent inhibition. All of the concentrations were evaluated in triplicate.

[2] = molecular target: T1, AChE from human erythrocytes (Homo sapiens, UniProt P22303); assay: Kinetic study of AChE inhibition (Lineweaver–Burk plots); assay type: biochemical; conditions: for Vmax: substrate acetylthiocholine iodide
T1 construct: AChE from human erythrocytes; from tissue; host or cells: human erythrocytes
T1 sequence (P22303 other isoform, or with tags, fused parts or gaps): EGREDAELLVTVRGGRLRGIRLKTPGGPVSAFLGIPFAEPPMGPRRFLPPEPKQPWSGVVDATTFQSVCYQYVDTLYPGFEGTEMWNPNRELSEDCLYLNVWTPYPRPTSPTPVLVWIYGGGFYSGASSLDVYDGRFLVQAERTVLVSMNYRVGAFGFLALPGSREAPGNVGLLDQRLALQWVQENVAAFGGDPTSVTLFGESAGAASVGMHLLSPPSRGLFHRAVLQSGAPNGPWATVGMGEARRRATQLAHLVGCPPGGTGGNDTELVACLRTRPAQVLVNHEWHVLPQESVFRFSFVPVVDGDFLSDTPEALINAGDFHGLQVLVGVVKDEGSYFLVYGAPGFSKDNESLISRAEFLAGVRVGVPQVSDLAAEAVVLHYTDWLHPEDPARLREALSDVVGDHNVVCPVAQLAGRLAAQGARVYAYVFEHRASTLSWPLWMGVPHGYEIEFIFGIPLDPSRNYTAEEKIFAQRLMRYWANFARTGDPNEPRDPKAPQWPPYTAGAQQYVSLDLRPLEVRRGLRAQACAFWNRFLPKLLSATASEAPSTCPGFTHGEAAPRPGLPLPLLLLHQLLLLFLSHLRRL
Experimental: To determine the inhibition mechanism, a kinetic study was carried out. Compound 3b was selected from the synthesized compounds for kinetic analysis to determine its inhibition potential. The identification of the inhibition mode of compound 3b began by using a series of concentrations of acetylthiocholine iodide (0.00 µM, 0.009 µM, 0.018 µM, and 0.036 µM) with various concentrations of 3b. […] The highest reaction rates were calculated from the initial linear portion of the absorbance plot, which represented the five minutes following the addition of the enzyme, and absorbance data were collected at 30-second intervals. The type of enzyme inhibition was determined from the Lineweaver–Burk plots of the inverse of velocity (1/V) versus the inverse of substrate concentration (1/[S] mM^−1).
The efficiency of 3b in blocking the free enzyme and enzyme–substrate complex was investigated in terms of its enzyme inhibition (EI) and enzyme–substrate inhibition (ESI) constants. […] The plots of the effects of complex 3b were linear and appeared in the second quadrant.

[3] = molecular target: T1, AChE from human erythrocytes; assay: Acetylcholinesterase inhibition assay (Ellman method); assay type: biochemical
Experimental: The inhibitory activities of the synthesized compounds were analyzed spectrophotometrically using acetylthiocholine iodide as the substrate by following the method of Ellman et al.. In general, the reaction mixture comprised 180 µL of 50 mM of Tris HCl buffer (pH 8.0) with 0.1 M of sodium chloride and 0.02 M of magnesium chloride, to which 20 µL of enzyme (AChE, EC 3.1.1.7, AChE from human erythrocytes) solution was added (50 U in each well). The synthesized compounds (10 µL at the concentration being tested for their impact on growth) were added to the reaction mixture, and the mixtures were pre-incubated for 30 min at 4 °C. Then, 5,5′-dithiobis(2-nitrobenzoic acid) (0.3 mM, 20 µL) and acetylthiocholine iodide (1.8 mM, 20 µL) were added to the assay solution, and the mixtures were incubated at 37 °C for 10 min. After the incubation period, the absorbance of each well was measured at 412 nm. For the non-enzymatic reaction, the assays were carried out with a blank containing all the components except AChE. The assay measurements were collected at […] using a microplate reader (OPTI Max, Tunable, Molecular Devices, Sunnyvale, CA, USA). IC50 values were calculated using GraphPad Prism 5.0 through non-linear regression. Each experiment was performed in triplicate.
The percentage of inhibition of […] was calculated: inhibition (%) = [(Blank−Sample)/Blank] × 100.

[4] = mean ± SEM, triplicate, substrate acetylthiocholine iodide, read-out: Acetylcholine Esterase (from Human Erythrocytes) IC50 ± SEM

Structure (SMILES)	IC50 [3, 4] [nM]	further results
C[C@@H]1COc2c(N3CCNCC3)c(F)cc3c(=O)c(-c4nnc(N)s4)cn1c23 [Compound 3b, (R)-6-(5-amino-1,3,4-thiadiazol-2-yl)-9-fluoro-3-methyl-10-(piperazin-1-yl)-2H-[1,4]oxazino[2,3,4-ij]quinolin-7(3H)-one]	18.1 ± 0.9	Free radical scavenging potency (DPPH) [1]: excellent radical scavenging potency; Vmax ([2]; 3b concentration 0.009 µM): 0.000467 ΔA/Sec; Vmax ([2]; 3b concentration 0.018 µM): 0.000343 ΔA/Sec; Vmax ([2]; 3b concentration 0.036 µM): 0.000183 ΔA/Sec; Mode of inhibition of AChE ([2]; Lineweaver–Burk analysis): mixed mode of inhibition; Ki ([2]; from plot of slope versus inhibitor concentration, read-out: Ki (EI dissociation constant)): 3.1 nM
CC(C)Cc1ccc(C(C)c2nnc(N)s2)cc1 (stereo not shown) [Compound 3d, 5-(1-(4-isobutylphenyl)ethyl)-1,3,4-thiadiazol-2-amine]	2240 ± 112	
Nc1nnc(-c2cn(C3CC3)c3cc(N4CCN(C(=O)c5ccc(Cl)cc5Cl)CC4)c(F)cc3c2=O)s1 [Compound 3i, 3-(5-amino-1,3,4-thiadiazol-2-yl)-1-cyclopropyl-7-(4-(2,4-dichlorobenzoyl)piperazin-1-yl)-6-fluoroquinolin-4(1H)-one]	29200 ± 1460	
COc1ccc(C(=O)N2CCN(c3cc4c(cc3F)c(=O)c(-c3nnc(N)s3)cn4C3CC3)CC2)cc1 [Compound 3h, 3-(5-amino-1,3,4-thiadiazol-2-yl)-1-cyclopropyl-6-fluoro-7-(4-(4-methoxybenzoyl)piperazin-1-yl)quinolin-4(1H)-one]	1710 ± 86.5	
COc1ccc2cc([C@H](C)c3nnc(N)s3)ccc2c1 [Compound 3e, (S)-5-(1-(6-methoxynaphthalen-2-yl)ethyl)-1,3,4-thiadiazol-2-amine]	3810 ± 190	
Nc1nnc(COCCN2CCN(C(c3ccccc3)c3ccc(Cl)cc3)CC2)s1 (stereo not shown) [Compound 3f, 5-((2-(4-((4-chlorophenyl)(phenyl)methyl)piperazin-1-yl)ethoxy)methyl)-1,3,4-thiadiazol-2-amine]	17300 ± 863	
Nc1nnc(-c2cn(C3CC3)c3cc(N4CCN(C(=O)c5cccc([N+](=O)[O-])c5)CC4)c(F)cc3c2=O)s1 [Compound 3g, 3-(5-amino-1,3,4-thiadiazol-2-yl)-1-cyclopropyl-6-fluoro-7-(4-(3-nitrobenzoyl)piperazin-1-yl)qui nolin-4(1H)-one]	1180 ± 59.1	
C[C@@H]1COc2c(N3CCN(C)CC3)c(F)cc3c(=O)c(-c4nnc(N)s4)cn1c23 [Compound 3c, (R)-6-(5-amino-1,3,4-thiadiazol-2-yl)-9-fluoro-3-methyl-10-(4-methylpiperazin-1-yl)-2H-[1,4]oxazino[2,3,4-ij]quinolin-7(3H)-one]	576.3 ± 3.6	
Nc1nnc(-c2cn(C3CC3)c3cc(N4CCNCC4)c(F)cc3c2=O)s1 [Compound 3a, 3-(5-amino-1,3,4-thiadiazol-2-yl)-1-cyclopropyl-6-fluoro-7-(piperazin-1-yl)quinolin-4(1H)-one]		Free radical scavenging potency (DPPH) [1]: excellent radical scavenging potency; IC50 [3]: 126 ± 3.6 nM
